In publication PMC3162996 (Journal of natural products, 2011):
Entries after “also recorded” stand apart in the source; their conditions may differ.

What was measured:
[1] = tested on: transcription factor AP-1; assay: AP-1 assay; assay type: cell-based; conditions: HEK293T AP-1 β-lactamase reporter; 1 h pre-incubation, then TPA, 18 h
[2] = Floridian collections of Lyngbya confervoides; ref [6],[7]; cited from earlier work

Substance	inhibitory activity against AP-1 (in words) [1]	cytotoxicity (in words) [2]
Grassypeptolide F [compound 1]	moderately active; also recorded: moderate inhibitory activity	–
Grassypeptolide G [compound 2]	moderately active; also recorded: moderate inhibitory activity	–
grassypeptolide C [compound 5]	–	cytotoxic
